Results from patent US20250352514A1, “SALT FORMS OF BIS(3-(2-(DIMETHYLAMINO)ETHYL)-1 H-INDOL-4-YL) 3,3'¬OXYDIPROPIONATE” (priority 2024, published 2025).

Test: Initial polymorphism assessment by slurrying in 12 solvents at room temperature, XRPD
Assay type: physicochemical
Details: shaken at room temperature 3-4 days
Source text: The vials were capped, sealed with Parafilm®, and then covered with foil. The experiments were shaken at room temperature for 4 days. After 4 days all the experiments had remained as slurries apart from the experiment in water. Portions of solid were removed from each one and analyzed by XRPD.
The vials were capped, sealed with Parafilm® and then covered with foil. The experiments were shaken at room temperature for 3 days. After 3 days all the experiments had remained as slurries. Portions were removed from each one and analyzed by XRPD.

CN(C)CCc1c[nH]c2cccc(OC(=O)CCOCCC(=O)Oc3cccc4[nH]cc(CCN(C)C)c34)c12
XRPD patterns after slurrying in 12 solvents compared with input material: XRPD patterns consistent with the XRPD pattern of the input material
